Reference: US11166942B2 (PRAXIS BIOTECH LLC, priority 2018, dated 2021)

What was measured:
[1] = system: Balb/c mice with immobilized hind limb, gastrocnemius; assay: Immobilization-induced muscle atrophy; type: in vivo, mouse; details: 10 mg/kg oral
Procedure: Wild type eight-weeks-old male Balb/c mice obtained from the vivarium Fundación Ciencia & Vida Chile (Santiago, Chile) were used. Mice were housed in independent plastic cages, fed ad libitum in a room maintained at 25° C. with a 12-h:12-h light:dark cycle.
Twenty-four hours before and during the 3 days of immobilization procedures, animals receive oral administration via feeding tubes (15 gauge) of vehicle (50% Polyethylene glycol 400 (Sigma-Aldrich P3265) in distilled water or 10 mg/kg of test compound formulated in vehicle.
One hindlimb is immobilized with a plastic stick placed over and under the limb and fixed with a medical adhesive bandage. Animals were daily monitored. The immobilization procedure prevents movement of the immobilized leg alone. After 3 days, the animals were sacrificed and gastrocnemius muscle is removed from both hindlimbs, the contralateral, non-immobilized leg being used as an internal control.
For in vivo measurements of protein synthesis, puromycin (Sigma-Aldrich, P8833) is prepared at 0.04 μmol/g body weight in a volume of 200 μl of PBS, and subsequently administered into the animals via intraperitoneal injection, 30 min prior to muscle collection.
Upon collection, muscles were immediately frozen in liquid nitrogen and stored at −80° C. […] Protein concentration in supernatants is determined using BCA Protein Assay Kit (Pierce). […]
Puromycin (12D10) (Merck Millipore), ATF4 (Abcam), Atrogin-1 (ECM Biosciences), MuRF-1 (Santa Cruz Biotechnology) and β-actin (Sigma-Aldrich) antibodies were used as primary antibodies. […] Quantification of protein bands is done by densitometry using ImageJ software.
Expression of ATF4 and the muscle atrophy markers, Atrogin-1 and MuRF-1, of gastrocnemius derived from mobilized and immobilized hind limbs of mice treated with vehicle or compound 58 are shown in FIG. 9C. […] The levels were normalized to β-actin expression and percentage is calculated as the percent relative to the expression of mobile hind limb from control mice (Vehicle) which corresponds to 100%. […]

[2] = system: Balb/c mice with denervated hind limb, tibialis anterior; assay: Denervation-induced muscle atrophy; type: in vivo, mouse
Procedure: Wild type eight-weeks-old male Balb/c mice obtained from the vivarium Fundación Ciencia & Vida Chile (Santiago, Chile) were used. Mice were housed in independent plastic cages in a room maintained at 25° C. with a 12-h:12-h light:dark cycle.
After a deeply anesthetized (isoflurane inhaled in medical oxygen), mice were denervated by surgical removal of ˜2 mm of sciatic nerve from one hindlimb. The incisions were closed using sutures. All procedures were performed under sterile conditions and the mice were daily monitored.
After seven days of denervation, animals receive oral administration every day via feeding tubes (15 gauge) of vehicle (50% Polyethylene glycol 400 (Sigma-Aldrich P3265) in distilled water) or 10 mg/kg of compound 58 formulated in vehicle solution.
After 14 days of denervation, animals were sacrificed and tibialis anterior were removed from both hindlimbs. Muscles derived from non-denervated hind limb were used as control.
Upon collection, muscles were immediately frozen in liquid nitrogen and stored at −80° C. The frozen muscles were then homogenized with a T 10 basic ULTRA-TURRAX (IKa) in ice-cold buffer lysis (Cell Signaling 9803) and protease and phosphatase inhibitors (Roche). Lysates were sonicated for 3 min and centrifuged at 13,000 rpm for 20 minutes at 4° C. Protein concentration in supernatants was determined using BCA Protein Assay Kit (Pierce). Equal amount of protein was loaded on SDS-PAGE gels. […]
ATF4 (Abcam), Atrogin-1 (ECM Biosciences), MuRF-1 (Santa Cruz Biotechnology) and R-actin (Sigma-Aldrich) antibodies were used as primary antibodies. […] Quantification of protein bands was done by densitometry using ImageJ software.
Expression of ATF4 and the muscle atrophy markers, Atrogin-1 and MuRF-1, of tibialis anterior derived from control and denervated hind limbs of mice treated with vehicle or compound 58 are shown in FIG. 11A. […] The levels were normalized to pi-actin expression and percentage was calculated as the percent relative to the expression of non-denervated hind limbs from control mice (Vehicle) which corresponds to 100%. […]

O=C(NN1CCN(C[C@@H](O)COc2ccc(Cl)c(F)c2)CC1)c1ccc2cc(Cl)ccc2n1 [Compound 58, (R)-6-chloro-N-(4-(3-(4-chloro-3-fluorophenoxy)-2-hydroxypropyl)piperazin-1-yl)quinoline-2-carboxamide]
reduction: ATF4 expression in gastrocnemius ([1]; vs vehicle (FIG. 9D)) | Atrogin-1 expression in gastrocnemius ([1]; vs vehicle (FIG. 9E)) | MuRF-1 expression in gastrocnemius ([1]; vs vehicle (FIG. 9F)) | ATF4 expression in tibialis anterior ([2]; 10 mg/kg oral every day from day 7 to 14, vs vehicle (FIG. 11B)) | Atrogin-1 expression in tibialis anterior ([2]; 10 mg/kg oral every day from day 7 to 14, vs vehicle (FIG. 11C)) | MuRF-1 expression in tibialis anterior ([2]; 10 mg/kg oral every day from day 7 to 14, vs vehicle (FIG. 11D))
